Source: patent US11819532B2, “Peptide macrocycles against Acinetobacter baumannii” (Hoffmann-La Roche Inc., priority 2018, dated 2023)
Where two headings read alike, the source gives them in different places.

How the values were obtained:
A. baumannii ATCC 17978 = assay: 50% growth inhibitory concentration (IC50) determination, antimicrobial susceptibility testing; assay type: cell-based; details: Acinetobacter baumannii
Method: The in vitro antimicrobial activity of the compounds was alternatively determined according to the following procedure:
The assay used a 10-points Iso-Sensitest broth medium to measure quantitatively the in vitro activity of the compounds against A. baumannii ATCC 17978.
Stock compounds in DMSO were serially twofold diluted (e.g. range from 50 to 0.097 μM or from 10 to 0.020 μM final concentration) in 384 wells microtiter plates and inoculated with 49 μl the bacterial suspension in Iso-Sensitest medium to have a final cell concentration of ˜5×10^(5)CFU/ml in a final volume/well of 50 μl/well. Microtiter plates were incubated at 35±2° C.
Bacterial cell growth was determined with the measurement of optical density at X=600 nm each 20 minutes over a time course of 16h.
Growth inhibition was calculated during the logarithmic growth of the bacterial cells with determination of the concentration inhibiting 50% (IC50) and 90% (IC90) of the growth.
Table 1 provides the 50% growth inhibitory concentrations (IC50) in micromoles per liter of the compounds of present invention obtained against the A. baumannii strain ATCC17978.

[1] = Plasma precipitation screening assay; parameters: species or system rat
Method: An aliquot (10 μL) of compound solubilized in physiological buffer or the formulation used for its parenteral administration in vivo, and of various dilutions thereof in phosphate-buffered saline (PBS), is mixed 1:1 with rat plasma. After 10 minutes incubation at room temperature the UV-absorption of the mixtures is measured and compared to absorption of blank plasma or plasma with vehicle solution. A significant (often concentration dependent) increase of absorption is indicative of precipitation.
Whole blood is obtained from WISTAR rats (Hanbrl:Wist SPF) under terminal anaesthesia after intraperitoneal injection of a pentobarbital solution (from animals euthanized for collection of tissue for other experimental purposes). Blood is collected in 1.2 mL of Heparin S-Monovette tubes (Sarstedt) for the preparation of heparin plasma.
The tubes are then centrifuged for 5 min at 5200 g at room temperature to isolate the plasma supernatant. The plasma is used in the assay within 48 h of collection (storage at 4° C.).
Test compounds are received as powder or formulated. When obtained as powder, they are solubilized in 0.9% aq. sodium chloride solution in order to get the highest indicated concentration to be tested. The solubility is visually checked and the solutions are filtered using 0.45 PVDF hydrophilic filters (Durapore®, Darmstadt, Germany), to remove possible solid impurities. pH of this initial solution might be measured in the filtered stock solutions, before proceeding to prepare a compound dilution series in PBS (1:1-dilution steps).
The assay is conducted in 384-well plates. 10 μL of rat plasma is added to 10 μL of the various compound solutions. The assay is performed in duplicate. 10 μL of vehicle (0.9% aq. sodium chloride solution, PBS) added to the plasma is used as a negative control. The absorption is measured at 362 nm.
Raw data obtained are absorbance data. The difference between absorbance of the sample and mean absorbance of vehicle is calculated. The minimal effect concentration (MEC) is defined as the lowest concentration giving an absorbance difference, OD362≥0.05.

[2] = 50% growth inhibition, A. baumannii strain ATCC17978, Iso-Sensitest medium, read-out: IC50 ATCC17978
[3] = Wistar (Hanbrl:Wist SPF), rat, 10 min
[4] = ATCC17978, read-out: IC50 ATCC17978
[5] = minimal effect concentration, lowest concentration giving absorbance difference OD362≥0.05, rat plasma 1:1, 10 minutes room temperature

| SMILES | IC50 (A. baumannii ATCC 17978; [2]) | Plasma precipitation MEC [1, 3] | IC50 (A. baumannii ATCC 17978; [4]) | Plasma precipitation MEC [1, 5] |
| --- | --- | --- | --- | --- |
| CN1C(=O)[C@H](CCCCN)NC(=O)[C@H](CCCN)NCc2cccnc2Sc2cncc(-c3ccc(C(=O)O)cc3)c2CNC(=O)[C@@H]1Cc1c[nH]c2ccccc12 [Example 18.00, 4-[(11S,14S,17S)-14-(4-Aminobutyl)-1-(3-aminopropyl)-17-(1H-indol-3-ylmethyl)-16-methyl-12,15,18-trioxo-2-thia-4,10,13,16,19,24-hexazatricyclo[19.4.0.03,8]pentacosa-1(25), 3(8), 4,6,21,23-hexaen-22-yl]benzoic Acid] | 75 nM | >1760 µmol/L | – | – |
| CN1C(=O)[C@H](CCCCN)NC(=O)[C@H](CCCN)NCc2cccnc2Sc2c(Cl)ccc(Cl)c2CNC(=O)[C@@H]1Cc1c[nH]c2ccccc12 [Example 38 of WO2017/072062, reference compound] | – | – | 42 nM | 52 µmol/L |
| CN1C(=O)[C@H](CCCCN)NC(=O)[C@H](CCCN)NCc2cccnc2Sc2c(Cl)ccc(-c3ccc(C(=O)O)cc3)c2CNC(=O)[C@@H]1Cc1c[nH]c2ccccc12 [Example 239 of WO2017/072062, reference compound] | – | – | 20 nM | 470 µmol/L |
| CN1C(=O)[C@H](CCCCN)NC(=O)[C@H](CCCN)NCc2cccnc2Sc2c(Cl)ccc(-c3ccc(OCC(=O)O)cc3)c2CNC(=O)[C@@H]1Cc1c[nH]c2ccccc12 [Example 241 of WO2017/072062, reference compound] | 50 nM | 95 µmol/L | – | – |
